For seven molecules, IC50 results are on record in BindingDB's records for doi:10.1021/jm00031a001 (Fisons, 1994).

Test [1] deals with Phospholipase A2 group IB (Sus scrofa). As to the kind of experiment: In vitro activity against porcine pancreatic phospholipase-A2 (PLA2) and micellar substrate with deoxycholate (DOC).
Test [2] addresses Phospholipase A2 group IB (pancreatic, Sus scrofa). Put plainly: In vitro activity against porcine pancreatic phospholipase-A2 (PLA2) and monomerically dispersed substrate.

The IC50 is the point on the concentration scale where inhibition reaches its midpoint. A lower IC50 goes with higher potency. Consider `CCCCCC/C=C/CC(=O)N[C@@H](CC(=O)O)CC(C)C` [(R)-3-((S)-(E)-Dec-3-enoylamino)-5-methyl-hexanoic acid], for which the IC50 turned out to be 8.5 µM in test [1] and 0.3 µM in test [2].

With `CCCCCCCCCC(=O)N[C@@H](CC(=O)O)CC(C)C` [(R)-3-((S)-Decanoylamino)-5-methyl-hexanoic acid], the IC50 in test [1] is 15 µM; in test [2], 1.4 µM.

In the case of `CCCCCCCCCCCCCCCC(=O)N[C@@H](CC(=O)O)CC(C)C` [(R)-3-((S)-Hexadecanoylamino)-5-methyl-hexanoic acid], the IC50 in test [1] came out at 7.3 µM; in test [2] it was 0.19 µM.

With `CCCCCC/C=C/CC(=O)N[C@H](CSc1ccc2ccccc2c1)CC(=O)O` [(S)-3-((S)-(E)-Dec-3-enoylamino)-4-(naphthalen-2-ylsulfanyl)-butyric acid], the concentration for half-maximal inhibition (IC50) in test [1] came out at 0.79 µM; in test [2], 0.023 µM.

For `CCCCCC/C=C/CC(=O)N[C@H](CSc1ccccc1)CC(=O)O` [(S)-3-((S)-(E)-Dec-3-enoylamino)-4-phenylsulfanyl-butyric acid], the IC50 in test [1] was 2.2 µM; in test [2] it was 0.095 µM.

In the case of `CCCCCCCCCCCCCCCC(=O)N[C@@H](CCC(=O)O)CC(C)C` [(S)-4-((S)-Hexadecanoylamino)-6-methyl-heptanoic acid], the IC50 in test [1] was 4.5 µM; in test [2], 0.2 µM.

As to `CCCCCCCCCCCCCCCC(=O)N[C@@H](CCCC(=O)O)CC(C)C` [(S)-5-((S)-Hexadecanoylamino)-7-methyl-octanoic acid], the IC50 in test [1] is 19 µM; in test [2], 1.3 µM.
